Earlier results in patent publication US6808938B2, “Method and apparatus for assaying a drug candidate to estimate a pharmacokinetic parameter associated therewith” (Biacore AB, priority 1999, dated 2004).

Conditions: stated to explain lack of correlation at 500 μM in FIG. 7

## CN1C(C(=O)Nc2ccccn2)=C(O)c2ccccc2S1(=O)=O [Piroxicam]
  Solubility: < 500 µM
